Earlier results on one compound are cited in US20120277719A1, “COATING COMPOSITIONS, METHODS AND COATED DEVICES” (MASSACHUSETTS INSTITUTE OF TECHNOLOGY, priority 2011, published 2012).

For the series the following is noted: reported.

As to `O=C(OC[C@H]1O[C@@H](OC(=O)c2cc(O)c(O)c(OC(=O)c3cc(O)c(O)c(O)c3)c2)[C@H](OC(=O)c2cc(O)c(O)c(OC(=O)c3cc(O)c(O)c(O)c3)c2)[C@@H](OC(=O)c2cc(O)c(O)c(OC(=O)c3cc(O)c(O)c(O)c3)c2)[C@@H]1OC(=O)c1cc(O)c(O)c(OC(=O)c2cc(O)c(O)c(O)c2)c1)c1cc(O)c(O)c(OC(=O)c2cc(O)c(O)c(O)c2)c1` [Tannic acid, tannic acid], the pKa is on record as approximately 8.5.

One may read the pKa as the pH at which an ionisable group is half protonated.
